Data set [1] is described as follows: MTT viability assay, L929. The format is cell-based, murine. Conditions: mouse, L929 fibroblasts, tested 1–500 µM. Here is the method:
(§1) When the confluence was greater than 70%, adherent cell lines were detached from the bottle surface with a TrypLE solution and then used in assays or reduced. The cells were collected into centrifuge tubes and centrifuged at 1000× g for 5 min at room temperature. The supernatant was removed to dry. The cell pellets were then resuspended in an appropriate medium. The cells were counted using a Bürker chamber and resuspended in 96-well plates to a cell density of 10,000 cells per well for MTT assay. For the rhodamine accumulation test and the detection of apoptosis assay, cells were seeded at a density of 30,000 per well. In the migration assay, cells were seeded at a density of 20,000 per well, and monolayer formation was awaited.
(§2) In this study, normal human dermal fibroblasts (NHDFs), breast cancer cells (MCF7), human lung adenocarcinoma cells (A549), murine fibroblasts (L929), colon adenocarcinoma cells (HT29), and colorectal adenocarcinoma cells (LoVo) were used. All cell lines were cultured in the recommended media. […] The human lung adenocarcinoma cell line A549 and breast cancer cell line MCF-7 were obtained from the ECACC. These cell lines were cultured in Eagle’s minimal essential medium (MEM). Murine fibroblast L929 (Sigma-Aldrich, Merck Group, Headquarters, Darmstadt, Germany; the European Collection of Authenticated Cell Cultures—ECACC) cells were grown in DMEM. […] All media were supplemented with 10% FBS and 100 µg/mL of penicillin–streptomycin.
(§3) All compounds were dissolved in DMSO and the reference drugs were dissolved in physiological saline to concentrations of 10 mM. Concentrations from 1 to 500 μM in the media recommended for the cell lines were prepared for the tests.
(§4) All of the synthesized derivatives were evaluated via the MTT assay. All cell lines were seeded into 96-well plates at a density of 10,000 cells per well. To allow the cells to adhere to the surface of the plates, they were incubated overnight before the application of the test compounds. […] The tests were performed for concentrations of 1, 5, 10, 25, 50, 100, 250, and 500 μM. The solutions of the test compounds were removed from the culture on the 96-well plates. […] The supernatant was then removed. The violet crystal was dissolved in isopropanol for 30 min by shaking. Absorbance was measured at 570 nm.
(§5) Biological assays were performed in three independent replicates, and each replicate used four samples. Three repetitions were made for the ELISA determinations. For the assessment of cytotoxicity, mathematical models were developed using the GraphPad PRISM software, based on which CC50 was determined. The values of CC50 were estimated based on nonlinear regression using the dependence of the biological effect on the molar concentrations of the compounds (four-parameter logistic model with Hill slope).

Data set [2] can be described thus: MTT viability assay, NHDF. The class given is cell-based, human. Conditions: human, normal human dermal fibroblasts (NHDF), tested 1–500 µM. Here is the method:
as §1, §2, §3, §4, §5
On the technique in general: Tetrazolium assays rely on reduction of a dye to a coloured formazan, in cell work by metabolically active cells.

The subject of data set [3] is lung adenocarcinoma (A549). As to the kind of experiment: MTT viability assay, A549. The format is cell-based, human. Conditions: for SI (selectivity index): CC50 NHDF / CC50 A549; for CC50: Homo sapiens. As for the experimental part:
as §1, §2, §3, §4, §5

Data set [4] has as its system breast adenocarcinoma (MCF7). As to the kind of experiment: MTT viability assay, MCF7. The format is cell-based, human. Conditions: for SI (selectivity index): CC50 NHDF / CC50 MCF7; for CC50: Homo sapiens, MCF7, MTT, tested 1–500 µM. Here is the method: as §1, §2, §3, §4, §5
For data set [5], the system named is primary colon adenocarcinoma (HT29). As to the kind of experiment: MTT viability assay, HT29. The format is cell-based, human. Conditions: for SI (selectivity index): CC50 NHDF / CC50 HT29; for CC50: tested 1–500 µM. As for the experimental part: as §1, §2, §3, §4, §5
Data set [6] deals with metastatic colon adenocarcinoma (LoVo). As to the kind of experiment: MTT viability assay, LoVo. The class given is cell-based, human. Particulars: for SI (selectivity index): CC50 NHDF / CC50 LoVo; for CC50: Homo sapiens, LoVo, MTT, tested 1–500 µM. As for the experimental part:
as §1, §2, §3, §4, §5

Data set [7] has as its system HT29 primary colon adenocarcinoma cells. As to the kind of experiment: Detection of apoptosis (Annexin V FITC / propidium iodide). The class given is cell-based, human. Particulars: 24 h. Also on record: unit not given here. As for the experimental part:
as §1, with “All cell lines were grown in 5% CO2 at 95% humidity and 37 °C, with both morphology and confluence assessed twice per week. When” for “When”
HT29 primary colon adenocarcinoma cells were grown in 96-well plates for 24 h. The 5 selected derivatives were added at concentrations of 1, 2, 5, and 10 µM, and then incubated for 24 h. The mixture of Annexin V conjugated with fluorescein and propidium iodide in PBS with Mg^2+ and Ca^2+ ions (Thermo Fisher Scientific, Waltham, MA, USA) was then applied. The incubation lasted 20 min at 37 °C. Pictures were taken using a fluorescence microscope. Thirteen images were taken from each well using an EVOS FL fluorescence microscope, with three replications for each compound. The open ImageJ space was used to analyze the number of cells. The Thermo Fisher Dead Cell Apoptosis Kit with Annexin V FITC and Propidium Iodide (PI) detects phosphatidylserine extrusion in apoptotic cells using Annexin V conjugated with a green fluorescent FITC dye and dead cells stained by PI with red fluorescence.

The test system of a further data set is HT29 cells. As to the kind of experiment: Migration (scratch) assay. The class given is cell-based, human. Conditions: control T 155558.2, control T0 544366.45. As for the experimental part:
The scratch test was performed to verify that the tested compound 3g could inhibit the formation of metastases by the HT29 cell line. The seeded HT29 cells were incubated until they formed a monolayer over the entire surface of the well. Then, a scratch test was performed by making a scratch in the monolayer and measuring its width—that is, To, amounting to 544,366.45 μm^2. Freshly prepared compounds were added to the HT29 cells at concentrations of 10, 25, 50, and 100 μM. Breeding plates were incubated for 24 h. The next day, scratch width was measured again using the ImageJ open-source platform. […] The lowest cellular overgrowth of HT29 culture occurred at the concentration of 100 μM for the compound. Compound 3g inhibited the migration of HT29 cells more strongly than the reference drugs, showing that it has the potential to inhibit metastasis. The width of the scratch after 24 h when no compound was applied to the cells was used as a control (T = 155,558.2 μm^2).
as §1, with “All cell lines were grown in 5% CO2 at 95% humidity and 37 °C, with both morphology and confluence assessed twice per week. When” for “When”
After seeding, HT29 cells were incubated until they formed a monolayer over the entire surface of the well. A scratch was made on the surface overgrown with cells, and then photomicrographs of the scratch were taken using the EVOS FL microscope. The freshly prepared compound 3g and the reference drugs were added at concentrations of 10, 25, 50, and 100 µM. Then, they were incubated for 24 h, and micrographs were performed at that time using the EVOS FL microscope. The scratch width was measured using the ImageJ open-source platform. The measurement of scratch width was also performed after 24 h without adding compounds.

We go through four compounds from PMC9569971, “New Oxazolo[5,4-d]pyrimidines as Potential Anticancer Agents: Their Design, Synthesis, and In Vitro Biological Activity Research” (International Journal of Molecular Sciences, 2022).

Broadly, the CC50 is the concentration giving 50% cytotoxicity. Broadly, the melting point is the temperature of the solid-liquid transition. With `CCCNc1ncnc2oc(-c3c(C)noc3N)nc12` [Compound 3c, 2-(5-Amino-3-methylisoxazol-4-yl)-7-N-propylaminooxazolo[5,4-d]pyrimidine], the melting point is 220 to 221 °C (dec.). The same compound showed a cytotoxic concentration (CC50) in data set [1] of 90.6 ± 8.75 µM. For the same compound, half-maximal cytotoxicity in data set [2] (CC50) was put at 172 ± 14.5 µM. Further, in data set [3] (A549, MTT, tested 1–500 µM), the “CC50 ± SD” value is on record as “no activity”. In addition, in data set [4], the “SI (selectivity index)” value is listed as 0.862 and it took 199 ± 16.1 µM to reach half-maximal cytotoxicity (CC50). In addition, in data set [5], the “SI (selectivity index)” value is given as 0.766. In [5] (Homo sapiens, HT-29, HT29, MTT), this compound yielded a CC50 of 224 ± 23.1 µM.
As to `Cc1noc(N)c1-c1nc2c(NCCN(C)C)ncnc2o1` [Compound 3f, 2-(5-Amino-3-methylisoxazol-4-yl)-7-N-[2-(N,N-dimethylamino)ethyl]aminooxazolo[5,4-d]pyrimidine], the half-maximal cytotoxic concentration (CC50) in data set [1] stood at 207 ± 16.5 µM; in data set [2], 172 ± 20.7 µM; in [3] (A549, MTT, tested 1–500 µM) it was 148 ± 13.8 µM; in data set [4] it was 195 ± 12 µM; in [6], 235 ± 13 µM; in [5] (Homo sapiens, HT-29, HT29, MTT), 153 ± 15 µM. Moreover, the “SI (selectivity index)” value in data set [3] amounted to 1.161; in [4], 0.881; in [6], 0.729; in data set [5], 1.124. Besides, the apoptosis mean in data set [7] (1 μM) is listed as 7.07; in data set [7] (2 μM), 3.08; in [7] (5 μM) it was 6.76; in data set [7] (10 μM) it was 18.64. For the same compound, the late apoptosis mean is reported as 3.15 in data set [7] (1 μM), 7.34 in data set [7] (2 μM), 12.74 in data set [7] (5 μM) and 6.51 in data set [7] (10 μM). The necrosis mean in data set [7] (1 μM) amounted to 0.16; in [7] (2 μM) it was 5.76; in data set [7] (5 μM), 5.73; in data set [7] (10 μM) it was 2.78. Also, the “percent live (viable) cells” value in data set [7] (1 μM) turned out to be 89.62; in [7] (2 μM) it was 83.82; in [7] (5 μM), 74.77; in data set [7] (10 μM), 72.06.
Turning to `O=c1[nH]cc(F)c(=O)[nH]1` [Compound 5-FU, 5-fluorouracil, reference compound], the cytotoxic concentration (CC50) came to 38.1 ± 7.13 µM in data set [1]; 20.4 ± 2.97 µM in [2]; 269 ± 17.2 µM in data set [3] (A549, MTT, tested 1–500 µM); 217 ± 20 µM in data set [4]; 381 ± 25.5 µM in [5] (HT29, MTT); 381 µM in [5] (Homo sapiens, HT-29, HT29, MTT). Besides, the “SI (selectivity index)” value in data set [3] stood at 0.076; in [4], 0.094; in [6], 0.282; in [5], 0.053. Also, the apoptosis mean in data set [7] (1 μM) amounted to 7.92; in [7] (2 μM), 10.65; in data set [7] (5 μM), 10.75; in data set [7] (10 μM), 3.81. For the same compound, the late apoptosis mean in [7] (1 μM) is reported as 31.72; in [7] (2 μM), 28.91; in data set [7] (5 μM) it was 33.06; in data set [7] (10 μM) it was 16.02. Besides, the necrosis mean is 10.48 in [7] (1 μM), 8.86 in [7] (2 μM), 8.39 in data set [7] (5 μM) and 34.82 in [7] (10 μM). For the same compound, the “percent live (viable) cells” value was 59.77 in [7] (1 μM), 63.94 in data set [7] (2 μM), 60.16 in [7] (5 μM) and 55.23 in data set [7] (10 μM). Besides, the “scratch width after 24 h, mean” value with HT29 cells (10 μM) is recorded as 155098.248 μm^2; in the data set with HT29 cells (25 μM), 192391.405 μm^2; with HT29 cells (50 μM), 198312.887 μm^2; with HT29 cells (100 μM), 282974.4 μm^2.
In the case of `CCCCCNc1ncnc2oc(-c3c(C)noc3N)nc12` [Compound 3e, 2-(5-Amino-3-methylisoxazol-4-yl)-7-N-pentylaminooxazolo[5,4-d]pyrimidine], the CC50 in [1] was determined as 89.2 ± 6.04 µM; in data set [2] it was 125 ± 11.5 µM; in data set [3] (A549, MTT, tested 1–500 µM), 125 ± 12.1 µM; in data set [4], 155 ± 15.5 µM; in data set [6] it was 178 ± 6.65 µM; in data set [5] (Homo sapiens, HT-29, HT29, MTT), 129 ± 10 µM. The “SI (selectivity index)” value in data set [3] was 0.999; in [4], 0.804; in [6] it was 0.702; in data set [5], 0.963. The apoptosis mean in data set [7] (1 μM) worked out at 6.20; in data set [7] (2 μM), 4.33; in data set [7] (5 μM), 5.40; in data set [7] (10 μM), 4.05. Besides, the late apoptosis mean amounted to 11.11 in data set [7] (1 μM), 12.44 in data set [7] (2 μM), 18.31 in [7] (5 μM) and 22.59 in data set [7] (10 μM). Besides, the necrosis mean in data set [7] (1 μM) was found to be 4.53; in [7] (2 μM), 9.43; in data set [7] (5 μM), 10.22; in data set [7] (10 μM), 20.74. In addition, the “percent live (viable) cells” value came to 78.17 in data set [7] (1 μM), 73.80 in [7] (2 μM), 66.07 in [7] (5 μM) and 52.63 in data set [7] (10 μM).
